Results: patent publication US20240391936A1, “TETRAHYDROTHIENO PYRIDINE DERIVATIVES AS DDRS INHIBITORS” (CHIESI FARMACEUTICI S.P.A., priority 2021, published 2024)
Read-outs that look alike come from different tables or passages of the source.

Experiments:
DDR2 = molecular target: T1, DDR2 (Homo sapiens, UniProt Q16832); assay: DDR2 binding assay (LanthaScreen Europium Kinase Binding assay); parameters: purchased Life Technologies
T1 sequence (Q16832 22-855): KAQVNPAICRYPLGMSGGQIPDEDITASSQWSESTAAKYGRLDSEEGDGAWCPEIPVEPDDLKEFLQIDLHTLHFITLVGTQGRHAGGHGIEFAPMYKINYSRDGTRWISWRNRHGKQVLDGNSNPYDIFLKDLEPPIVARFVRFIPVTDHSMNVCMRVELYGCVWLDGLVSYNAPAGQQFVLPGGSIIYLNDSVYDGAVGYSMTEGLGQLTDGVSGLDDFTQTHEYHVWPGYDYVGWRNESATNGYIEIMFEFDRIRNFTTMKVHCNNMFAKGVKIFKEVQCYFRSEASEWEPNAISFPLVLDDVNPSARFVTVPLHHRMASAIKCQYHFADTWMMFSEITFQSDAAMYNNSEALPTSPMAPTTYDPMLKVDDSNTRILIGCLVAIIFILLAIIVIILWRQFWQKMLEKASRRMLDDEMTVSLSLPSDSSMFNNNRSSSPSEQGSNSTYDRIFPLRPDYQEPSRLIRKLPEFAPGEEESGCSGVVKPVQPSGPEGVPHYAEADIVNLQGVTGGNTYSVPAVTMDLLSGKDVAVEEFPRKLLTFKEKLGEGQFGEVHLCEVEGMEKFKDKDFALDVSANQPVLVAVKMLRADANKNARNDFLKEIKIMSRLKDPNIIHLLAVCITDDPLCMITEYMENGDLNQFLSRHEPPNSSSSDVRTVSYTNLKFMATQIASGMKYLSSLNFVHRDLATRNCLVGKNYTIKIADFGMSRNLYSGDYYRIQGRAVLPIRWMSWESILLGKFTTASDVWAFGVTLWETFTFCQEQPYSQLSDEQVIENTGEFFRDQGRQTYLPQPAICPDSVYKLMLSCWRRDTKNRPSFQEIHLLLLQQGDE
Description: (§1) DDR1 and DDR2 binding assays were performed using Life Technologies LanthaScreen™ Europium Kinase Binding assay. The compounds were incubated with 5 nM DDR1 (Carna Biosciences) or 5 nM DDR2 (Life Technologies) for 1 hour at room temperature in white 384-well OptiPlate (PerkinElmer), containing 20 nM or 10 nM Kinase Tracer 178 respectively and 2 nM Europium labelled anti-GST antibody (Life Technologies) in assay buffer (50 mM HEPES pH 7.5, 10 mM MgCl2, 1 mM EGTA and 0.01% BRIJ35).
(§2) The ratio of fluorescence emission 665 nm/615 nm after excitation at 340 nm was obtained using the Tecan Spark 20M plate reader. IC50 values were determined in GraphPad Prism 7.0 software, using 4 parameter model: log(inhibitor) vs. response. IC50 values were converted in Ki using the Cheng-Prusoff equation

DDR1 [1] = molecular target: T2, DDR1 (Homo sapiens, UniProt Q08345); assay: DDR1 cell based assay (PathHunter U2OS DDR1 assay); parameters: host or cells: U2OS-DDR1 (PathHunter); conditions: U2OS-DDR1 cells, bovine Type II Collagen 20 μg/ml
Description: The inhibition of DDR1 receptor activation by compounds was evaluated by PathHunter® U2OS DDR1 assay (Eurofins DiscoverX), according to the manufacturer's instructions. Briefly, U2OS-DDR1 cells were seeded in white 384-well plates at a density of 5000 cells/well and incubated for 2 hours at 37° C. and 5% CO2. Cells were then treated with compounds at different concentrations and incubated for 30 minutes, before stimulation with bovine Type II Collagen 20 μg/ml and incubation overnight at 37° C. and 5% CO2. PathHunter Detection Reagents were prepared according to the protocol provided by DiscoverX and 20 μl/well of this mix were added to each well. After incubating the plates for 1 hour at room temperature in the dark, luminescence signal was acquired with a plate reader. Raw data were normalized to vehicle control (0% for normalization) and positive control (100% for normalization; cells treated with 20 μg/ml collagen II) and IC50 parameters were calculated in GraphPad Prism 8.0 software, using sigmoidal dose-response curve fitting with variable slope.

DDR1 [2] = molecular target: T2, DDR1; assay: DDR1 binding assay (LanthaScreen Europium Kinase Binding assay); parameters: purchased Carna Biosciences
Description: as §1, §2

[3] = binding assay, 5 nM DDR2, 10 nM Kinase Tracer 178, Ki from IC50 by Cheng-Prusoff, read-out: Ki DDR2
[4] = binding assay, 5 nM DDR1, 20 nM Kinase Tracer 178, Ki from IC50 by Cheng-Prusoff, read-out: Ki DDR1
[5] = 5 nM DDR2, 10 nM Kinase Tracer 178, 1 hour at room temperature, IC50 converted in Ki using the Cheng-Prusoff equation, read-out: DDR2 Ki
[6] = 5 nM DDR1, 20 nM Kinase Tracer 178, 1 hour at room temperature, IC50 converted in Ki using the Cheng-Prusoff equation, read-out: DDR1 Ki

T2 sequence (Q08345 19-913): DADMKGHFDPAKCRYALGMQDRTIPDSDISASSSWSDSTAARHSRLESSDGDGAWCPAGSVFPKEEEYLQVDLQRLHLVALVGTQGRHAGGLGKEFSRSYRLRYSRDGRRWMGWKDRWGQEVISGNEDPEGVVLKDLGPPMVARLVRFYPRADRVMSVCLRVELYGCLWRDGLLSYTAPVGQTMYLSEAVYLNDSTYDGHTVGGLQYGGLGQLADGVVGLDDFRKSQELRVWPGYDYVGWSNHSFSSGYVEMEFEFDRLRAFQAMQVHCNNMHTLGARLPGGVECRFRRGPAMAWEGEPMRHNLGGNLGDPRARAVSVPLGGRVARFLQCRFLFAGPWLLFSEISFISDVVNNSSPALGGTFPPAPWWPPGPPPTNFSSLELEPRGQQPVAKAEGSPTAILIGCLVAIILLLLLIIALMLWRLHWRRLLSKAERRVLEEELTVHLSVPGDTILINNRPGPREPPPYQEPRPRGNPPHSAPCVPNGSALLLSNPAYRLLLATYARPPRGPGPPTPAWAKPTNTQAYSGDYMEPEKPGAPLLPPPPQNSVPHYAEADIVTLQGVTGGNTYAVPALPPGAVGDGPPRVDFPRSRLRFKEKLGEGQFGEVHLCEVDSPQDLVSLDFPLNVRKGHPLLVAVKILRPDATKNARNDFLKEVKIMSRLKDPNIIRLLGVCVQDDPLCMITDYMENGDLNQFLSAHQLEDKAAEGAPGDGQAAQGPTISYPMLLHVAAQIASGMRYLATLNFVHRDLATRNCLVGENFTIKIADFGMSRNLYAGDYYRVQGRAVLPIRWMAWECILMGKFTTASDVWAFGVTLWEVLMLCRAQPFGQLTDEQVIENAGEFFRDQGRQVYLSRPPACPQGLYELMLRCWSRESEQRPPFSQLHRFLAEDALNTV

| Ki (DDR2; [3]) | IC50 (DDR1 [1]) | Ki (DDR1 [2]; [4]) | Ki (DDR2; [5]) | Ki (DDR1 [2]; [6]) | SMILES |
| --- | --- | --- | --- | --- | --- |
| < 25 nM | 50 to 80 nM | < 25 nM |  |  | CC1Cc2c(C(=O)Nc3cccc(C(F)(F)F)c3)csc2CN1Cc1cnc2cnccn12 (single isomer, unassigned) [Example 105, 6-(imidazo[1,2-a]pyrazin-3-ylmethyl)-5-methyl-N-(3-(trifluoromethyl)phenyl)-4,5,6,7-tetrahydrothieno[2,3-c]pyridine-3-carboxamide] |
| < 25 nM | < 25 nM | < 25 nM |  |  | O=C(Nc1cccc(C(F)(F)F)c1)c1csc2c1CCN(C(=O)c1cnc3cccnn13)C2 [Example 92, 6-(imidazo[1,2-b]pyridazine-3-carbonyl)-N-(3-(trifluoromethyl)phenyl)-4,5,6,7-tetrahydrothieno[2,3-c]pyridine-3-carboxamide] |
| < 25 nM | 25 to 50 nM | < 25 nM |  |  | CC(C)(C)c1cc(NC(=O)c2csc3c2CCN(C(=O)c2cnc4ccccn24)C3)n(Cc2ccccc2)n1 [Example 41, N-(1-benzyl-3-(tert-butyl)-1H-pyrazol-5-yl)-6-(imidazo[1,2-a]pyridine-3-carbonyl)-4,5,6,7-tetrahydrothieno[2,3-c]pyridine-3-carboxamide] |
| < 25 nM | 50 to 80 nM | < 25 nM |  |  | CN1CCC(Oc2cc(NC(=O)c3csc4c3CCN(C(=O)c3cnc5ccccn35)C4)cc(C(F)(F)F)c2)C1 (stereo not shown) [Example 63, 6-(imidazo[1,2-a]pyridine-3-carbonyl)-N-[3-(1-methylpyrrolidin-3-yl)oxy-5-(trifluoromethyl)phenyl]-5,7-dihydro-4H-thieno[2,3-c]pyridine-3-carboxamide] |
| < 25 nM | 25 to 50 nM | < 25 nM |  |  | CC(C)(c1cc(NC(=O)c2csc3c2CCN(C(=O)c2cnn4ccncc24)C3)no1)C(F)(F)F [Example 126, 6-(pyrazolo[1,5-a]pyrazine-3-carbonyl)-N-(5-(1,1,1-trifluoro-2-methylpropan-2-yl)isoxazol-3-yl)-4,5,6,7-tetrahydrothieno[2,3-c]pyridine-3-carboxamide] |
| < 25 nM | 50 to 80 nM | < 25 nM |  |  | CN(C)[C@@H]1CCN(C(=O)c2cc(NC(=O)c3csc4c3CCN(C(=O)c3cnc5ccccn35)C4)cc(C(F)(F)F)c2)C1 [Example 130, (R)-N-(3-(3-(dimethylamino)pyrrolidine-1-carbonyl)-5-(trifluoromethyl)phenyl)-6-(imidazo[1,2-a]pyridine-3-carbonyl)-4,5,6,7-tetrahydrothieno[2,3-c]pyridine-3-carboxamide] |
| < 25 nM | < 25 nM | < 25 nM |  |  | O=C(Nc1cccc(C(F)(F)F)c1)c1csc2c1CCN(C(=O)c1cnc3n1CCCC3)C2 [Example 95, 6-(5,6,7,8-tetrahydroimidazo[1,2-a]pyridine-3-carbonyl)-N-(3-(trifluoromethyl)phenyl)-4,5,6,7-tetrahydrothieno[2,3-c]pyridine-3-carboxamide] |
| < 25 nM | 25 to 50 nM | < 25 nM |  |  | O=C(Nc1cncc(C(F)(F)F)c1)c1csc2c1CCN(C(=O)c1cnc3cnccn13)C2 [Example 127, 6-(imidazo[1,2-a]pyrazine-3-carbonyl)-N-(5-(trifluoromethyl)pyridin-3-yl)-4,5,6,7-tetrahydrothieno[2,3-c]pyridine-3-carboxamide] |
| < 25 nM | 25 to 50 nM | < 25 nM |  |  | CN1CCN(CCOc2cc(NC(=O)c3csc4c3CCN(C(=O)c3cnc5ccccn35)C4)cc(C(F)(F)F)c2)CC1 [Example 62, 6-(imidazo[1,2-a]pyridine-3-carbonyl)-N-(3-(2-(4-methylpiperazin-1-yl)ethoxy)-5-(trifluoromethyl)phenyl)-4,5,6,7-tetrahydrothieno[2,3-c]pyridine-3-carboxamide] |
| < 25 nM | 25 to 50 nM | < 25 nM |  |  | CN(C)[C@@H]1CCN(Cc2cc(NC(=O)c3csc4c3CCN(C(=O)c3cnc5ccccn35)C4)cc(C(F)(F)F)c2)C1 [Example 45, (R)-N-(3-((3-(dimethylamino)pyrrolidin-1-yl)methyl)-5-(trifluoromethyl)-phenyl)-6-(imidazo[1,2-a]pyridine-3-carbonyl)-4,5,6,7-tetrahydrothieno[2,3-c]pyridine-3-carboxamide] |
| < 25 nM | 50 to 80 nM | < 25 nM |  |  | CC(C)(C)c1cncc(NC(=O)c2csc3c2CCN(C(=O)c2cnn4ccncc24)C3)c1 [Example 123, N-(5-(tert-butyl)pyridin-3-yl)-6-(pyrazolo[1,5-a]pyrazine-3-carbonyl)-4,5,6,7-tetrahydrothieno[2,3-c]pyridine-3-carboxamide] |
| < 25 nM | 25 to 50 nM | < 25 nM |  |  | CC(C)(C)c1cc(NC(=O)c2csc3c2CCN(C(=O)c2cnc4n2CCOC4)C3)on1 [Example 112, N-(3-(tert-butyl)isoxazol-5-yl)-6-(5,6-dihydro-8H-imidazo[2,1-c][1,4]oxazine-3-carbonyl)-4,5,6,7-tetrahydrothieno[2,3-c]pyridine-3-carboxamide] |
| < 25 nM | 25 to 50 nM | < 25 nM |  |  | CN1CCC(Oc2ccc(NC(=O)c3csc4c3CCN(C(=O)c3cnc5ccccn35)C4)cc2C(F)(F)F)CC1 [Example 32, 6-(imidazo[1,2-a]pyridine-3-carbonyl)-N-(4-((1-methylpiperidin-4-yl)oxy)-3-(trifluoromethyl)phenyl)-4,5,6,7-tetrahydrothieno[2,3-c]pyridine-3-carboxamide] |
| 25 to 50 nM | 25 to 50 nM | < 25 nM |  |  | CN(C)Cc1ccc2ncc(C(=O)N3CCc4c(C(=O)Nc5cccc(C(F)(F)F)c5)csc4C3)n2c1 [Example 135, 6-(6-((dimethylamino)methyl)imidazo[1,2-a]pyridine-3-carbonyl)-N-(3-(trifluoromethyl)phenyl)-4,5,6,7-tetrahydrothieno[2,3-c]pyridine-3-carboxamide] |
| < 25 nM | < 25 nM | < 25 nM |  |  | CC1CN(C(=O)c2cnc3ccccn23)Cc2scc(C(=O)Nc3cccc(C(F)(F)F)c3)c21 (stereo not shown) [Example 185, 6-(imidazo[1,2-a]pyridine-3-carbonyl)-4-methyl-N-(3-(trifluoromethyl)phenyl)-4,5,6,7-tetrahydrothieno[2,3-c]pyridine-3-carboxamide] |
|  |  |  | 531 nM | 312 nM | CN1CCN(Cc2cc(NC(=O)c3cc4c(s3)CN(C(=O)c3cnc5ccccn35)CC4)cc(C(F)(F)F)c2)CC1 [Example C1, 6-(imidazo[1,2-a]pyridine-3-carbonyl)-N-(3-((4-methylpiperazin-1-yl)methyl)-5-(trifluoromethyl)phenyl)-4,5,6,7-tetrahydrothieno[2,3-c]pyridine-2-carboxamide] |
|  |  |  | 160 nM | 195 nM | CN1CCN(Cc2cc(NC(=O)c3cc4c(s3)CCN(C(=O)c3cnc5ccccn35)C4)cc(C(F)(F)F)c2)CC1 [Example C2, 5-(imidazo[1,2-a]pyridine-3-carbonyl)-N-(3-((4-methylpiperazin-1-yl)methyl)-5-(trifluoromethyl)phenyl)-4,5,6,7-tetrahydrothieno[3,2-c]pyridine-2-carboxamide] |
